How the values were obtained:
Test in all cases: XTT cell viability assay, inhibition of multiplication of leukemia cell line
Type in all cases: cell-based
Ba/F3 mother cell line = settings: 1 mg/ml of CD-200, 1 μM of CD-EPT, 48 hours
Experimental: (§1) For measuring the cell viability indicating the inhibition of multiplication, in vitro XTT assay has been employed. […] To find out the selective inhibition of T315I enzyme variant from BCR-ABL fusion gene, the cell lines have been incubated for 48 hours at 37° C. After incubation, the sample has been treated with XTT formazan (WEL GENE) for 4 hours at 37° C. Finally, the cell viability has been measured using ELISA through the absorbance at 620 nm, 540 nm (FIG. 1).

Ba/F3(BCR/ABL) cell line = settings: 1 mg/ml of CD-200, 1 μM of CD-EPT, 48 hours
Experimental: as §1

[1] = system: Ba/F3 (BCR/ABL-T315I) cell line
From the text: For measuring the cell viability indicating the inhibition of multiplication, in vitro XTT assay has been employed. […] Finally, the cell viability has been measured using ELISA through the absorbance at 620 nm, 540 nm (FIG. 1).

Structure (SMILES): C=C1C(=O)O[C@@H]2/C=C(\C)CC/C=C(\C)C[C@@H](OC(C)=O)[C@@H]12 [CD-EPT, epi-tulipinolide]
- inhibition of cell growth (cell viability) (Ba/F3 mother cell line): effectively inhibit the cell growth
- inhibition of cell growth (cell viability) (Ba/F3(BCR/ABL) cell line): cannot significantly inhibit the cell growth
- inhibition of cell growth compared to Imatinib ([1]; 1 μM of Imatinib, 1 mg/ml of CD-200, 1 μM of CD-EPT, Ba/F3 (BCR/ABL-T315I) cell line): effective inhibition of cell growth compared to Imatinib
- inhibition of cell growth (cell viability) ([1]; 1 mg/ml of CD-200, 1 μM of CD-EPT, 48 hours, XTT, Ba/F3 (BCR/ABL-T315I) cell line): effectively inhibit the cell growth
- IC50 ([1]; Ba/F3 (BCR/ABL-T315I) mutant, XTT, 48 hours): 800 nM
- effective inhibition capability compared to Imatinib ([1]; Ba/F3 (BCR/ABL-T315I) mutant, from IC50 values): 5 times

— patent publication US20160081978A1, “PHARMACEUTICAL COMPOSITION CONTAINING LIRIODENDRON TULIPIFERA L. EXTRACT FOR TREATING CHRONIC MYELOGENOUS LEUKEMIA” (CHO DANG PHARM. CO., LTD., priority 2013, published 2016)
